Results as given in the supplement of paper PMC10307832.

Legend:
Experiment in all cases: relative viability (nuclei count vs DMSO), 5 days (fraction); higher = more cells survive
[1] = tested on: UMC-11
Summary of the method: (§1)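 Lung cancer cell lines were seeded in 1536-well plates and dosed by pin tool the next day, with either a single drug or a fixed anchor-drug dose combined with five library-drug doses (not always all listed) spaced in √10 steps. Five days later, one step fixed the cells and stained their nuclei (final 0.05% Triton X-100, 1% formaldehyde, 1 ug/ml Hoechst), and nuclei were counted on 4× images. Relative viability is the nuclei count in treated wells divided by the count in vehicle wells, and each value is the median of duplicate plates.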

[2] = tested on: NCI-H1650
Summary of the method: as §1

[3] = tested on: H3255
Summary of the method: as §1

[4] = tested on: HCC-15
Summary of the method: as §1

[5] = tested on: 201T
Summary of the method: as §1

[6] = tested on: NCI-H322M
Summary of the method: as §1

[7] = tested on: NCI-H2023
Summary of the method: as §1

[8] = tested on: NCI-H3122
Summary of the method: as §1

[9] = tested on: NCI-H520
Summary of the method: as §1

[10] = tested on: NCI-H2170
Summary of the method: as §1

[11] = tested on: NCI-H1734
Summary of the method: as §1

[12] = tested on: NCI-H1793
Summary of the method: as §1

[13] = tested on: NCI-H2347
Summary of the method: as §1

[14] = tested on: NCI-H647
Summary of the method: as §1

[15] = tested on: PC-14
Summary of the method: as §1

[16] = tested on: EPLC-272H
Summary of the method: as §1

[17] = tested on: LOU-NH91
Summary of the method: as §1

[18] = tested on: COR-L23
Summary of the method: as §1

[19] = tested on: NCI-H2405
Summary of the method: as §1

[20] = tested on: NCI-H1563
Summary of the method: as §1

SMILES: CC(=O)O[C@@]12CO[C@@H]1C[C@H](O)[C@@]1(C)C(=O)[C@H](O)C3=C(C)[C@@H](OC(=O)[C@H](O)[C@@H](NC(=O)OC(C)(C)C)c4ccccc4)C[C@@](O)([C@@H](OC(=O)c4ccccc4)[C@H]21)C3(C)C [Docetaxel] + CS(=O)(=O)CCNCc1ccc(-c2ccc3ncnc(Nc4ccc(OCc5cccc(F)c5)c(Cl)c4)c3c2)o1 [Lapatinib] (partner 2 µM)
- relative viability ([1]; first compound 0.0002 µM): 0.8
- relative viability ([1]; first compound 0.000632 µM): 0.831
- relative viability ([1]; first compound 0.002 µM): 0.249
- relative viability ([1]; first compound 0.006325 µM): 0.26
- relative viability ([1]; first compound 0.02 µM): 0.148
- relative viability ([2]; first compound 0.0002 µM): 0.721
- relative viability ([2]; first compound 0.000632 µM): 0.322
- relative viability ([2]; first compound 0.006325 µM): 0.153
- relative viability ([2]; first compound 0.02 µM): 0.152
- relative viability ([3]; first compound 0.0002 µM): 0.227
- relative viability ([3]; first compound 0.002 µM): 0.223
- relative viability ([3]; first compound 0.006325 µM): 0.19
- relative viability ([3]; first compound 0.02 µM): 0.175
- relative viability ([4]; first compound 0.0002 µM): 0.681
- relative viability ([4]; first compound 0.000632 µM): 0.372
- relative viability ([4]; first compound 0.002 µM): 0.208
- relative viability ([4]; first compound 0.006325 µM): 0.195
- relative viability ([4]; first compound 0.02 µM): 0.137
- relative viability ([5]; first compound 0.0002 µM): 0.917
- relative viability ([5]; first compound 0.000632 µM): 0.937
- relative viability ([5]; first compound 0.002 µM): 0.822
- relative viability ([5]; first compound 0.006325 µM): 0.622
- relative viability ([5]; first compound 0.02 µM): 0.373
- relative viability ([6]; first compound 0.0002 µM): 0.511
- relative viability ([6]; first compound 0.000632 µM): 0.593
- relative viability ([6]; first compound 0.002 µM): 0.497
- relative viability ([6]; first compound 0.006325 µM): 0.46
- relative viability ([6]; first compound 0.02 µM): 0.293
- relative viability ([7]; first compound 0.0002 µM): 0.722
- relative viability ([7]; first compound 0.000632 µM): 0.408
- relative viability ([7]; first compound 0.002 µM): 0.135
- relative viability ([7]; first compound 0.006325 µM): 0.1
- relative viability ([7]; first compound 0.02 µM): 0.0578
- relative viability ([8]; first compound 0.0002 µM): 0.979
- relative viability ([8]; first compound 0.000632 µM): 0.977
- relative viability ([8]; first compound 0.002 µM): 0.942
- relative viability ([8]; first compound 0.006325 µM): 0.296
- relative viability ([8]; first compound 0.02 µM): 0.242
- relative viability ([9]; first compound 0.0002 µM): 0.856
- relative viability ([9]; first compound 0.000632 µM): 0.684
- relative viability ([9]; first compound 0.002 µM): 0.246
- relative viability ([9]; first compound 0.006325 µM): 0.162
- relative viability ([9]; first compound 0.02 µM): 0.12
- relative viability ([10]; first compound 0.0002 µM): 0.279
- relative viability ([10]; first compound 0.000632 µM): 0.265
- relative viability ([10]; first compound 0.002 µM): 0.194
- relative viability ([10]; first compound 0.006325 µM): 0.224
- relative viability ([10]; first compound 0.02 µM): 0.184
- relative viability ([11]; first compound 0.0002 µM): 0.986
- relative viability ([11]; first compound 0.000632 µM): 0.549
- relative viability ([11]; first compound 0.002 µM): 0.429
- relative viability ([11]; first compound 0.006325 µM): 0.322
- relative viability ([11]; first compound 0.02 µM): 0.221
- relative viability ([12]; first compound 0.0002 µM): 0.569
- relative viability ([12]; first compound 0.000632 µM): 0.618
- relative viability ([12]; first compound 0.006325 µM): 0.315
- relative viability ([12]; first compound 0.02 µM): 0.216
- relative viability ([13]; first compound 0.0002 µM): 1.01
- relative viability ([13]; first compound 0.000632 µM): 1.05
- relative viability ([13]; first compound 0.002 µM): 0.839
- relative viability ([13]; first compound 0.006325 µM): 0.512
- relative viability ([13]; first compound 0.02 µM): 0.479
- relative viability ([14]; first compound 0.0002 µM): 0.868
- relative viability ([14]; first compound 0.000632 µM): 0.217
- relative viability ([14]; first compound 0.002 µM): 0.119
- relative viability ([14]; first compound 0.006325 µM): 0.0918
- relative viability ([14]; first compound 0.02 µM): 0.0858
- relative viability ([15]; first compound 0.0002 µM): 0.272
- relative viability ([15]; first compound 0.000632 µM): 0.417
- relative viability ([15]; first compound 0.002 µM): 0.235
- relative viability ([15]; first compound 0.006325 µM): 0.0958
- relative viability ([15]; first compound 0.02 µM): 0.0629
- relative viability ([16]; first compound 0.0002 µM): 1.04
- relative viability ([16]; first compound 0.000632 µM): 0.76
- relative viability ([16]; first compound 0.002 µM): 0.199
- relative viability ([16]; first compound 0.006325 µM): 0.0933
- relative viability ([16]; first compound 0.02 µM): 0.114
- relative viability ([17]; first compound 0.0002 µM): 0.715
- relative viability ([17]; first compound 0.000632 µM): 0.589
- relative viability ([17]; first compound 0.002 µM): 0.462
- relative viability ([17]; first compound 0.006325 µM): 0.361
- relative viability ([17]; first compound 0.02 µM): 0.351
- relative viability ([18]; first compound 0.0002 µM): 0.993
- relative viability ([18]; first compound 0.000632 µM): 0.843
- relative viability ([18]; first compound 0.002 µM): 0.625
- relative viability ([18]; first compound 0.006325 µM): 0.14
- relative viability ([18]; first compound 0.02 µM): 0.107
- relative viability ([19]; first compound 0.0002 µM): 1.03
- relative viability ([19]; first compound 0.000632 µM): 0.623
- relative viability ([19]; first compound 0.002 µM): 0.557
- relative viability ([19]; first compound 0.006325 µM): 0.488
- relative viability ([19]; first compound 0.02 µM): 0.345
- relative viability ([20]; first compound 0.0002 µM): 0.969
- relative viability ([20]; first compound 0.000632 µM): 1.01
- relative viability ([20]; first compound 0.002 µM): 0.971
- relative viability ([20]; first compound 0.006325 µM): 0.747
- relative viability ([20]; first compound 0.02 µM): 0.581
